In patent publication US5157019A, “Serine protease inhibitors” (Monsanto Company, priority 1991, dated 1992):
Bridge positions count the residues as written; N and C are the ends. Ends that are not written are not given here.

Experiments:
Format in all cases: biochemical
Thrombin = Thrombin (Homo sapiens, UniProt P00734); assay: Coagulation inhibition assay, thrombin (fibrinogen clotting end point); conditions: 40 μM peptide
Experimental: Inhibitory activity of subject peptides toward thrombin and Factor Xa were done in the following manner. Mix 100 μL Thrombin (3.125 units/ml, 1.125 μg/ml) in TAB with […] Peptide in TAB and incubate for 1 minute at 37° C. Add 50 μL Fibrinogen (2 mg/ml)and measure clotting end point (in seconds) in a Fibrometer (BBL) TAB=Thrombin Assay Buffer: 0.15M NaCl, 6.6 gm/L PEG-6000, 0.01M Imidazole, 0.01 CaCl2, pH 7.4

Cathepsin G = target: T1, Cathepsin G (Homo sapiens, UniProt P08311); assay: Cathepsin G assay (Suc-Ala-Ala-Pro-Phe-pNA, 410 nm); conditions: 200 μM peptide (head of Table IX)
T1 construct: purchased Elastin Products Company (EPC) SG-45
T1 sequence (P08311 21-255): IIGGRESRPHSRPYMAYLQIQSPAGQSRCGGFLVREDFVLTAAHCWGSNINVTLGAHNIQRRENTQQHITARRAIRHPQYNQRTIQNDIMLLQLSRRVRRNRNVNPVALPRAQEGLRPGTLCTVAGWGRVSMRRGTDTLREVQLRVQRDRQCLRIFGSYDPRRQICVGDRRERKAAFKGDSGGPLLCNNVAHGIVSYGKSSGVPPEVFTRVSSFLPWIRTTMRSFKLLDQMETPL
Experimental: Reference: Elastin Products Company (EPC) technical data sheet, cathepsin G, No. SG-45.
Method: Spectrophotometric rate determination
A) Buffer; 0.1M Tris, pH 7.5 at 25° C.
B) Substrate; 60 mM Suc-Ala-Ala-Pro-Phe-pNA obtained from Sigma Chemical Company. Solution prepared by dissolving 50 mg substrate in 1.3 ml of 1-methyl-2-pyrrolidinone. Stored at 5° C.
C) Peptide Inhibitors; 200 μM HCl salt. Depending on peptide solubility, dissolved in buffer or DMSO and then buffer added for a final concentration of 10% DMSO.
D) Enzyme; Cathepsin G, EPC SG-45, lot 85117 used for all assays, 0.0077 mg protein per mg solid determined by supplier by Bradford method. Enzyme was dissolved in buffer at a concentration of approx. 5 mg/ml solid. Solution stored on ice, used within 2 hours.
Pipetted the following into semi-micro quartz cuvettes: 0.3 ml buffer, 0.15 ml peptide solution and 0.5 ml of substrate solution. Equilibrate for 5 min. at 25° C., then add 0.05 ml of enzyme solution and monitor the release of pNA spectrophotometrically at 410 nm for at least 3 minutes. The controls contain either 0.45 ml of buffer or 20% DMSO in buffer (for a final concentration of 10% DMSO).
The rate (O.D./min) is obtained as an average over 3 minutes. [formula]

HUMAN SPUTUM ELASTASE = target: T2, HUMAN SPUTUM ELASTASE (Homo sapiens, UniProt P08246); assay: Elastase assay (MeO-Suc-Ala-Pro-Val-pNA); conditions: 200 μM peptide
T2 construct: HUMAN SPUTUM ELASTASE; purchased Elastin Products Company SE563; host or cells: human sputum (from the product name)
T2 sequence (P08246 30-267): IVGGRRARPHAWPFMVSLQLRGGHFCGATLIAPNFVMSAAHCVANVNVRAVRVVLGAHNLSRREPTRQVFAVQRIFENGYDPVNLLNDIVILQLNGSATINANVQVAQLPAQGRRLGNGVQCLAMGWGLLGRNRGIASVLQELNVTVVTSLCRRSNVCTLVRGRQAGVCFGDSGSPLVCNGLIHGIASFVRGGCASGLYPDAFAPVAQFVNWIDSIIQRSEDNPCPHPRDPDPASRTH
Experimental: Enzyme used is "HUMAN SPUTUM ELASTASE®" which is an enzyme which is the target protease for α1 antitrypsin from Elastin Products Company, Catalog No. SE563, lot 85071, 875 units/mg as determined by supplier with N-Suc-Ala-Ala-Ala-pNA; prepared at 0.2 mg/mL in 0.1M Tris·HCl, pH 8.8 at 37 degrees C. An amount of enzyme is used to give approximately 0.1 change in Absorbance/min; which in this assay was 1 μg.
The substrate is MeO-Suc-Ala-Pro-Val-pNA, Sigma Catalog No. M-4765. About 50 mg of the substrate is dissolved in 1 ml of 1-methyl-2-pyrrolidinone and diluted to 33 mls. with 0.1M Tris-HCl, pH 7.5, containing 0.5M NaCl, and 0.01 wt % sodium azide.
Peptide solutions are prepared at 500 μM, using 1.5% of the final volume of DMSO first and diluting with distilled water (DW) or 0.1M Tris.HCl, pH 8.8 at 37 degrees C. [formula]

tPA = target: T3, tPA (Homo sapiens, UniProt P00750); assay: Tissue plasminogen activator (tPA) assay (S2288); conditions: for inhibition at 10 µM: 10 μM peptide
T3 construct: Enzyme tPA, 2 chain activity standard; purchased American Diagnostica, Inc. 116
Experimental: Substrate H-D-Ile-Pro-Arg-pNA·2HCl (S2288, Kabi), 10 mM in deionized water; may be frozen for future use.
Buffer 50 mM Tris·HCl, pH 7.4 containing 0.01% Tween 80.
Inhibitor […] in deionized water.
Enzyme tPA, 2 chain activity standard (Catalog #116, American Diagnostica, Inc.); stock solution=10 μL of original solution per mL in buffer.
Mix 200 μL of buffer, 200 μL of deionized water (control) or inhibitor solution and 40 μL of substrate solution. Incubate for 2 min. at 37° C., add 40 μL of enzyme, mix, and measure rate spectrophotometrically at 405 nm for about 5 min. Inhibition (%) is calculated in the same manner as in previous assays.

Factor D = target: T4, Factor D (Homo sapiens, UniProt P00746); assay: Factor D assay by inhibition of fluid phase Factor B activation; conditions: Table X; μM concentration at which protease was inhibited 50%; read-out: IC50 D
T4 construct: prepared from pooled human plasma; from tissue; host or cells: pooled human plasma
Experimental: (§1) Highly purified C3, C4, Factor D, Factor B, and C1s were prepared from pooled human plasma. Factors B and C4 were radiolabeled by periodate oxidation of sialic acid residues, followed by reduction with tritiated sodium borohydride. In a representative experiment, a solution of 1.2 mg of factor B in 1.8 ml of PBS was treated with 70 μl of 0.1M NaIO4. After 10 min incubation on ice, excess reagent was removed by filtration over "SEPHADEX®" which is a matrix for gel chromatography (1.0 cm×20 cm). To the protein pool was added 60 μl of NaB[^3 H]4 solution and incubated for 30 min on ice. Labeled protein was separated from excess reagent by desalting or dialysis. Human C4 was radiolabeled in the same manner. Radiolabeled proteins were stored at -70° C. in PBS. The specific radioactivity of ^3 H factor B was about 10,000 CPM/μg and that of ^3 H-C4 was 5,000 CPM/μg.
The effect of the peptides on Factor D-dependent cleavage of factor B was studied by incubating 3.5 μg of Factor B, 1.5 μg of C3(H2 O) and 0.2 μl of Factor D at 37° C. for 60 min in Mg-PBS containing different concentrations of inhibitor. Uncleaved Factor B and its fragments, Ba and Bb, were first separated by SDS-PAGE and analyzed as described above. The percent cleavage of the reaction was calculated as follows: [formula]
B=radioactivity (CPM) of uncleaved factor B
Bb=radioactivity (CPM) of fragment Bb
Ba=radioactivity (CPM) of fragment Ba
(§2) Electrophoresis was carried out under reducing conditions in the Laemmli system using slab gel of 8% polyacrylamide. The gels were stained and destained (Fairbanks et al. Biochemistry (1971) 10:2606).
(§3) The percent inhibition of the reaction was calculated according to the following relationship: [formula]
(§4) A: % cleavage without inhibitor
(§5) B: % cleavage with inhibitor
(§6) The concentration inducing 50% inhibition was obtained by plotting the percent inhibition on a probability graph (National Blank Book Co., No. 12-083) on the ordinate and the log of the inhibitor concentration on the abscissa. From this graph, a 50% inhibition concentration IC50 was obtained and this value was employed to express the activity.

C1s = target: T5, C1s (Homo sapiens, UniProt P09871); assay: C1s assay by inhibition of fluid phase C4 activation; conditions: Table X; μM concentration at which protease was inhibited 50%; read-out: IC50 C1S
T5 construct: prepared from pooled human plasma; from tissue; host or cells: pooled human plasma
T5 sequence (P09871 16-688): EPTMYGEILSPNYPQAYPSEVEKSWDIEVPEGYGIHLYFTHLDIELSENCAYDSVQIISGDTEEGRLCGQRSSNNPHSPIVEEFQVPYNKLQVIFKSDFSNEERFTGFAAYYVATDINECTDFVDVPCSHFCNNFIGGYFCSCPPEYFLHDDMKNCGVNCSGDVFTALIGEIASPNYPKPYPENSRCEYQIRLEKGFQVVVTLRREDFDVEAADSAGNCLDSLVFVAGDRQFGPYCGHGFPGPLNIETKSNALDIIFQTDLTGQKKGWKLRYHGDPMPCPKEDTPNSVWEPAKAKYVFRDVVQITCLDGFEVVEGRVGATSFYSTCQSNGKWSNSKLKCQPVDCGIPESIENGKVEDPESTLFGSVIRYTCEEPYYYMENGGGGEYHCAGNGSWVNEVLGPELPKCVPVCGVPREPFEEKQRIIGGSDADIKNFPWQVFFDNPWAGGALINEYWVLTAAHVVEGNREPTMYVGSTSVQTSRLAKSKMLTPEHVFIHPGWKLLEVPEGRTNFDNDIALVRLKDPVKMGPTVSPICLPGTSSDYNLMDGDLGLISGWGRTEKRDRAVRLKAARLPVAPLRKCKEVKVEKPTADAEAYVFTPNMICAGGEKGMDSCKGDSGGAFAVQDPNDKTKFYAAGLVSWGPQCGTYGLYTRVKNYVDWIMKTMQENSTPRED
Experimental: as §1
The cleavage of C4 was studied by incubating 10 μg of tritiated C4 with 3-5 ng of C1s at 37° C. for 30 min in 100 μl of PBS (pH 7.10) containing different concentrations of inhibitor. The reaction was stopped by the addition of 2-mercaptoethanol. The extent of cleavage was analyzed by SDS-polyacrylamide gel electrophoresis. The stained bands corresponding to C4α and C4α' were cut out and sliced. The radioactivity of the fragments was measured by liquid scintillation counting. The percent cleavage of the reaction was calculated as follows: [formula]
as §2, §3, §4, §5, §6

T3 sequence (P00750 311-562 limits assumed): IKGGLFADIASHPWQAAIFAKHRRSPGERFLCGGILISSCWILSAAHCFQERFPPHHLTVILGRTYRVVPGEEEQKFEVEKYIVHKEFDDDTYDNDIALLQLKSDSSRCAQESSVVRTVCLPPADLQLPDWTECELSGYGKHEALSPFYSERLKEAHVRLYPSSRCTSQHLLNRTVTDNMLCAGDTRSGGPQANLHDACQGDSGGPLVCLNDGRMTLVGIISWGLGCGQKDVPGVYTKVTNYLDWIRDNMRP
T3 sequence (P00750 36-310 partner limits assumed): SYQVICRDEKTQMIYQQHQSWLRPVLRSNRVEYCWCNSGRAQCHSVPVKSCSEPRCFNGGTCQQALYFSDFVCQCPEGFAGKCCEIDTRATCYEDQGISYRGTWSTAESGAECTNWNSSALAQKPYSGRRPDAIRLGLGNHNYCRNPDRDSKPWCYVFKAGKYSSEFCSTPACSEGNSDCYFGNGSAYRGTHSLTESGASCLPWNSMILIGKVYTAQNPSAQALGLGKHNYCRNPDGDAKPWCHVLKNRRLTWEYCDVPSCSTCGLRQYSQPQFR
T4 sequence (P00746 26-253): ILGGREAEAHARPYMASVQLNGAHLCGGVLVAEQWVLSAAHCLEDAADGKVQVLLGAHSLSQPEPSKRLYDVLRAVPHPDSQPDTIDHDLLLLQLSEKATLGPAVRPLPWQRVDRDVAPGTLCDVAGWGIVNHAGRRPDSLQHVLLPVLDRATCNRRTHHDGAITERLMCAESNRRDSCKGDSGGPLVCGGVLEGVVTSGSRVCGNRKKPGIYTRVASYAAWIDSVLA

Row | Sequence | Cathepsin G Inhibition (Cathepsin G) | Elastase Inhibition (HUMAN SPUTUM ELASTASE) | further results
1 | AGRSLNPNRTIVRFNRPFLLII [Peptide 11] | – | – | inhibition at 40 µM (Thrombin): 81%; inhibition at 200 µM (Cathepsin G): 40%; inhibition at 200 µM (HUMAN SPUTUM ELASTASE): 15%
2 | FLEAIPMSIPPEVKFNKPFVFLI [Peptide 4] | – | – | inhibition at 200 µM (Cathepsin G): 14%; inhibition at 200 µM (HUMAN SPUTUM ELASTASE): 70%
3 | FLEAIPMSIPPEVKFNKPFVFLLIEQNTKSPLFLGKVVNPTQK [Peptide 24] | 0% | 26% | –
4 | FLEAIPMSIPPIVRFNRPFLLII [Peptide 19] | – | 100% | –
5 | FLEAIPMSIPPTFKANRPFLVFI [Peptide 8] | 44% | 77% | Thrombin inhibition (Thrombin): 30%
6 | FLEAIPMSIRTIVRFNRPFLLII [Peptide 12] | 51% | 0% | –
7 | IAGRSLNPNPPEVKFKNPFVFLI [Peptide 5] | 0% | 0% | –
8 | IAGRSLNPNRVTFKANRPFCVFIREVPLNTIIFLGCVANPAVK (disulfide 20-36) [Peptide 45] | – | – | inhibition at 20 µM (tPA; 20 μM peptide): 69%
9 | IAGRSLNPNRVTVKFNKPFVFLLIEQNTKSPLFLGKVVNPTQK [Peptide 25] | 35% | 0% | –
10 | IDGRIVEGSRVTFKANRPFLVFI [Peptide 18] | – | – | IC50 (Factor D): 43 µM; IC50 (C1s): 40 µM
11 | LQRALEILRVTFKANRPFLVFI [Peptide 14] | – | – | IC50 (Factor D): 8 µM; IC50 (C1s): 9 µM
12 | PFLVFILPNIFLGRVAN [Peptide 43] | – | – | inhibition at 10 µM (tPA): 7%
13 | RPFLVFILPGIFLGRVANP [Peptide 38] | – | – | inhibition at 10 µM (tPA): 59%
14 | RPFLVFILPNIFLGRVAN [Peptide 42] | – | – | inhibition at 10 µM (tPA): 44%
15 | RPFLVFILPNIFLGRVANP [Peptide 39] | – | – | inhibition at 10 µM (tPA): 55%
16 | RPFLVFILPNIFLRVANP [Peptide 44] | – | – | inhibition at 10 µM (tPA): 55%
17 | RPFLVFIRPGDIFLGRVANP [Peptide 40] | – | – | inhibition at 10 µM (tPA): 39%
18 | RPFLVFIRPNDFLGRVANP [Peptide 41] | – | – | inhibition at 10 µM (tPA): 8%
19 | RPFLVFLPNILRVANP [Peptide 46] | – | – | inhibition at 10 µM (tPA): 0%
20 | TLLSALVETPPEVKFKNPFVFLI [Peptide 6] | 0% | 17% | –
21 | TLLSALVETRTIVKFNKPFVFLLIEQNTKSPLFLGKVVNPTQK [Peptide 26] | 0% | – | –
22 | TLLSALVETRTIVRFNRPFLLII [Peptide 10] | 65% | 0% | –
23 | TLLSALVETRVTFKANRPFLVFI [Peptide 9] | 41% | – | Thrombin inhibition (Thrombin): 32%

More lines, main results first:

Row | Cathepsin G Inhibition (Cathepsin G) | Elastase Inhibition (HUMAN SPUTUM ELASTASE) | Sequence | further results
24 | 0% | 0% | FLEAIPMSIPPIVRFNRPFLLIIVPTDTQNIFFLSKVTNPSKPR [Peptide 32] | –
25 | 16% | 0% | FLEAIPMSIPPRVTFKANRPFLVFIREVPLNTIIFLGRVANP [Peptide 28] | –
26 | 54% | 0% | IAGRSLNPNIVRFNRPFLLIIVPTDTQNIFFLSKVTNPSKPR [Peptide 31] | –
27 | 35% | 0% | IAGRSLNPNRVTLRYNKPFILVLFETPGNSLVFLGRISNPATK [Peptide 33] | –
28 | 38% | – | TLLSALVETRTIVRFNRPFLLIIVPTDTQNIFFLSKVTNPSKPR [Peptide 30] | –
